Test results published in patent US12521393B2, “Cytotoxicity targeting chimeras for CCR2-expressing cells” (GLAXOSMITHKLINE INTELLECTUAL PROPERTY DEVELOPMENT LIMITED, priority 2021, dated 2026).

Key:
[1] = system: CCR2 expressing cells (CD11b+Ly6c+Hi) in peripheral blood; experiment: In vivo depletion assay, flow cytometry of peripheral blood (Example 201); design: species or system human CCR2 knock-in mice (C57 background); details: hCCR2 knock-in mice, IV 0.1 mpk compound + 10 mpk anti-cotinine antibody (SEQ ID NO: 13/14), peripheral blood at 48 hr
Experimental: Stock solution preparation. Stock solutions of compounds of Formula (I) were prepared at 20 mg/mL and 100 mg/mL in […] for PK/PD and dose tolerability studies respectively. Stock solutions were stored at […] until further usage. on the day of experiment, the stock Solution of the compound of Formula (I) was removed from storage at […] and thawed at room temperature. Anti-cotinine antibody having a heavy chain sequence of SEC ID NO: 13 and a light chain sequence of SEQ ID NO: 14 (rabbit variable region sequence with mouse IgG2a Fc domain), if required was removed from storage at −80° C. and thawed at room temperature. Antibody vials were immediately transferred into wet ice after thawing. Compounds of Formula (I) were further diluted in DMSO as per experimental requirements.
The formulation composition was Saline: DMSI: PBS.
Saline was added based on the quantity required and then stock solution of the compound of Formula (I) prepared in DMSO, followed by addition of antibody in PBS. Formulations were incubated at room temperature for 30 minutes before administration to the mouse. DMSO was used at 1 to % (v/v) in the final formulation.
After bleeding, each mouse was sacrificed by cervical dislocation. […] Flow Cytometry Analysis:
CCR2 depletion in peripheral blood was determined by flow cytometry. Briefly, peripheral blood was collected from all animals at the end of study termination and processed. Blood samples were lysed using 1×RBC Lysis buffer and the resulting cell pellet was washed twice in FACS buffer (HBSS containing 5% FBS). Cells were subjected to Fc blocking using mouse Fc block from Biolegend (Trustain, anti-mouse CD16/32, Cat: 101319) to block non-specific binding followed by surface staining for immune markers (CD45, CD3, CD11 b, Ly6C, human CCR2). Surface staining was done for 30 minutes in ice and cells were washed twice to remove unbound antibodies. Cells were stained with 7AAD to determine viability and acquired on BD FACSVerse flow cytometer. Appropriate FMO controls and single-color controls were included in the experiment for gating and compensation respectively.
Percent depletion of CD11 b+Ly6c+Hi cells and CCR2 expression for the different treatment groups was determined.

[2] = system: endogenous target monocytes in human PBMC; experiment: PBMC ex vivo monocyte depletion flow cytometry assay (Example 200); assay type: cell-based; details: with anti-cotinine antibody (SEQ ID NO: 11/12), 18-24 hours, EC50 in molar, read-out: Ex Vivo Depletion Assay pEC50 (converted)
Procedure, shortened: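 Monocyte depletion is reported as pEC50, averaged or given individually across runs, and read by flow cytometry staining CD45, CD14 and CD4 with a viability dye. Compounds, diluted four-fold over 11 points from 1 mM DMSO stocks, were combined with 30 μg/mL Fc-enhanced anti-cotinine antibody and human PBMC, then incubated 18-24 h at 37° C.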

SMILES | % Depletion of CCR2 expressing cells [1] [%] | EC50 [2] [nM]
CCN1C(=O)C[C@H](C(=O)NCCO[C@H]2CC[C@H](OCCCC(=O)N[C@H]3CC[C@H](C(=O)N[C@@H]4C[C@H](N(C)C(C)C)CC[C@@H]4N4CC[C@H](Nc5ncnc6ccc(C(F)(F)F)cc56)C4=O)CC3)CC2)[C@H]1c1cccnc1 [Example 11, (2S,3S)-1-ethyl-N-(2-(((1,4-trans)-4-(4-(((1,4-trans)-4-(((1R,2S,5R)-5-(isopropyl(methyl)amino)-2-((S)-2-oxo-3-((6-(trifluoromethyl)quinazolin-4-yl)amino)pyrrolidin-1-yl)cyclohexyl)carbamoyl)cyclohexyl)amino)-4-oxobutoxy)cyclohexyl)oxy)ethyl)-5-oxo-2-(pyridin-3-yl)pyrrolidine-3-carboxamide] | 91.57 | 
CC(C)N(C)[C@@H]1CC[C@H](N2CC[C@H](Nc3ncnc4ccc(C(F)(F)F)cc34)C2=O)[C@H](NC(=O)[C@H]2CC[C@H](NC(=O)CCCO[C@H]3CC[C@H](OCCNC(=O)[C@H]4CC(=O)N(C5CCC5)[C@@H]4c4cccnc4)CC3)CC2)C1 [Example 14, (2S,3S)-1-cyclobutyl-N-(2-(((trans)-4-(4-(((trans)-4-(((1R,2S,5R)-5-(isopropyl(methyl)amino)-2-((S)-2-oxo-3-((6-(trifluoromethyl)quinazolin-4-yl)amino)pyrrolidin-1-yl)cyclohexyl)carbamoyl)cyclohexyl)amino)-4-oxobutoxy)cyclohexyl)oxy)ethyl)-5-oxo-2-(pyridin-3-yl)pyrrolidine-3-carboxamide] | 47.24 | 
CC(C)(C)N[C@@H]1CC[C@H](N2CC[C@H](Nc3ncnc4ccc(C(F)(F)F)cc34)C2=O)[C@H](NC(=O)[C@H]2CC[C@H](NC(=O)CCCO[C@H]3CC[C@H](OCCNC(=O)[C@H]4CC(=O)N(C5CCC5)[C@@H]4c4cccnc4)CC3)CC2)C1 [Example 15, (2S,3S)-N-(2-(((1R,4S)-4-(4-(((1R,4R)-4-(((1R,2S,5R)-5-(tert-butylamino)-2-((S)-2-oxo-3-((6-(trifluoromethyl)quinazolin-4-yl)amino)pyrrolidin-1-yl)cyclohexyl)carbamoyl)cyclohexyl)amino)-4-oxobutoxy)cyclohexyl)oxy)ethyl)-1-cyclobutyl-5-oxo-2-(pyridin-3-yl)pyrrolidine-3-carboxamide] | 92.6 | 
CC(C)N(C)[C@@H]1CC[C@H](N2CC[C@H](Nc3ncnc4ccc(C(F)(F)F)cc34)C2=O)[C@H](NC(=O)C[C@H]2CC[C@H](NC(=O)CCOCCOCCOCCNC(=O)[C@H]3CC(=O)N(C)[C@@H]3c3cccnc3)CC2)C1 [Example 33, (2S,3S)-N-(2-(2-(2-(3-(((1R,4r)-4-(2-(((1R,2S,5R)-5-(Isopropyl(methyl)amino)-2-((S)-2-oxo-3-((6-(trifluoromethyl)quinazolin-4-yl)amino)pyrrolidin-1-yl)cyclohexyl)amino)-2-oxoethyl)cyclohexyl)amino)-3-oxopropoxy)ethoxy)ethoxy)ethyl)-1-methyl-5-oxo-2-(pyridin-3-yl)pyrrolidine-3-carboxamide] | 89 | 0.316
CN1C(=O)C[C@H](C(=O)NCCOCCOCCOCCOCCOCCOCCOCCOCCC(=O)N[C@@H]2C[C@H](NC(C)(C)C)CC[C@@H]2N2CC[C@H](Nc3ncnc4ccc(C(F)(F)F)cc34)C2=O)[C@H]1c1cccnc1 [Example 36, (2S,3S)-N-(27-(((1R,2S,5R)-5-(tert-Butylamino)-2-((S)-2-oxo-3-((6-(trifluoromethyl)quinazolin-4-yl)amino)pyrrolidin-1-yl)cyclohexyl)amino)-27-oxo-3,6,9,12,15,18,21,24-octaoxaheptacosyl)-1-methyl-5-oxo-2-(pyridin-3-yl)pyrrolidine-3-carboxamide] | 83.33 | 
CN1C(=O)C[C@H](C(=O)NCCC(=O)NCCOCCOCCC(=O)N[C@H]2CC[C@@H](C(=O)N[C@@H]3C[C@H](NC(C)(C)C)CC[C@@H]3N3CC[C@H](Nc4ncnc5ccc(C(F)(F)F)cc45)C3=O)CC2)[C@H]1c1cccnc1 [Example 51, (2S,3S)-N-(3-((2-(2-(3-(((1S,4s)-4-(((1R,2S,5R)-5-(tert-Butylamino)-2-((S)-2-oxo-3-((6-(trifluoromethyl)quinazolin-4-yl)amino)pyrrolidin-1-yl)cyclohexyl)carbamoyl)cyclohexyl)amino)-3-oxopropoxy)ethoxy)ethyl)amino)-3-oxopropyl)-1-methyl-5-oxo-2-(pyridin-3-yl)pyrrolidine-3-carboxamide] | 97.32 | 0.631
CC(C)N(C)[C@@H]1CC[C@H](N2CC[C@H](Nc3ncnc4ccc(C(F)(F)F)cc34)C2=O)[C@H](NC(=O)[C@H]2CC[C@@H](NC(=O)CNC(=O)COCCOCCNC(=O)[C@H]3CC(=O)N(C)[C@@H]3c3cccnc3)CC2)C1 [Example 81, (2S,3S)-N-(2-(2-(2-((2-(((1S,4s)-4-(((1R,2S,5R)-5-(Isopropyl(methyl)amino)-2-((S)-2-oxo-3-((6-(trifluoromethyl)quinazolin-4-yl)amino)pyrrolidin-1-yl)cyclohexyl)carbamoyl)cyclohexyl)amino)-2-oxoethyl)amino)-2-oxoethoxy)ethoxy)ethyl)-1-methyl-5-oxo-2-(pyridin-3-yl)pyrrolidine-3-carboxamide] | 94 | 
CC(C)N(C)[C@@H]1CC[C@H](N2CC[C@H](Nc3ncnc4ccc(C(F)(F)F)cc34)C2=O)[C@H](NC(=O)[C@H]2CC[C@@H](NC(=O)COCCOCCNC(=O)CCNC(=O)[C@H]3CC(=O)N(C)[C@@H]3c3cccnc3)CC2)C1 [Example 82, (2S,3S)-N-(3-((2-(2-(2-(((1S,4s)-4-(((1R,2S,5R)-5-(Isopropyl(methyl)amino)-2-((S)-2-oxo-3-((6-(trifluoromethyl)quinazolin-4-yl)amino)pyrrolidin-1-yl)cyclohexyl)carbamoyl)cyclohexyl)amino)-2-oxoethoxy)ethoxy)ethyl)amino)-3-oxopropyl)-1-methyl-5-oxo-2-(pyridin-3-yl)pyrrolidine-3-carboxamide] | 94 | 0.501
CC(C)N(C)[C@@H]1CC[C@H](N2CC[C@H](Nc3ncnc4ccc(C(F)(F)F)cc34)C2=O)[C@H](NC(=O)CCc2ccc(C3CCN(C(=O)CCCCCNC(=O)[C@H]4CC(=O)N(C)[C@@H]4c4cccnc4)CC3)cc2)C1 [Example 86, (2S,3S)-N-(6-(4-(4-(3-(((1R,2S,5R)-5-(Isopropyl(methyl)amino)-2-((S)-2-oxo-3-((6-(trifluoromethyl)quinazolin-4-yl)amino)pyrrolidin-1-yl)cyclohexyl)amino)-3-oxopropyl)phenyl)piperidin-1-yl)-6-oxohexyl)-1-methyl-5-oxo-2-(pyridin-3-yl)pyrrolidine-3-carboxamide] | 25.67 | 0.158
CC(C)N(C)[C@@H]1CC[C@H](N2CC[C@H](Nc3ncnc4ccc(C(F)(F)F)cc34)C2=O)[C@H](NC(=O)C2CCN(C3CCN(CCOCCOCCNC(=O)[C@H]4CC(=O)N(C)[C@@H]4c4cccnc4)CC3)CC2)C1 [Example 90, N-((1R,2S,5R)-5-(Isopropyl(methyl)amino)-2-((S)-2-oxo-3-((6-(trifluoromethyl)quinazolin-4-yl)amino)pyrrolidin-1-yl)cyclohexyl)-1′-(2-(2-(2-((2S,3S)-1-methyl-5-oxo-2-(pyridin-3-yl)pyrrolidine-3-carboxamido)ethoxy)ethoxy)ethyl)-[1,4′-bipiperidine]-4-carboxamide] | 87.57 | 1.58
CN1C(=O)C[C@H](C(=O)NCCOCC(=O)NCCOCC(=O)N[C@H]2CC[C@@H](C(=O)N[C@@H]3C[C@H](NC(C)(C)C)CC[C@@H]3N3CC[C@H](Nc4ncnc5ccc(C(F)(F)F)cc45)C3=O)CC2)[C@H]1c1cccnc1 [Example 100, (2S,3S)-N-(2-(2-((2-(2-(((1S,4s)-4-(((1R,2S,5R)-5-(tert-Butylamino)-2-((S)-2-oxo-3-((6-(trifluoromethyl)quinazolin-4-yl)amino)pyrrolidin-1-yl)cyclohexyl)carbamoyl)cyclohexyl)amino)-2-oxoethoxy)ethyl)amino)-2-oxoethoxy)ethyl)-1-methyl-5-oxo-2-(pyridin-3-yl)pyrrolidine-3-carboxamide] | 74 | 1.26
